In US10053431B2, “Tetrahydro-benzodiazepinones” (priority 2013, dated 2018):
pIC50: −log10 of the molar value. Where a name gives a salt, the structure may show the parent alone. Read-outs that look alike come from different tables or passages of the source.

How the values were obtained:
[1] = molecular target: BIR2 domain of XIAP (Homo sapiens (Human), UniProt P98170, C202A/C213G); assay: TR-FRET assay for BIR2 (inhibition of binding of XIAP BIR2 domain to SMAC-derived Peptide A); details: 6x His-tagged BIR2 domain (aa 124-240 of XIAP) 10 nM, Peptide A 20 nM, TR-FRET; read-out: IC50 BIR2
[2] = molecular target: BIR3 domain of XIAP (Homo sapiens (Human), UniProt P98170); assay: TR-FRET assay for BIR3 (inhibition of binding of XIAP BIR3 domain to SMAC-derived Peptide A)
[3] = 6x His-tagged BIR3 domain (aa 241-356 of XIAP) 10 nM, Peptide A 20 nM, TR-FRET

BIR2 domain of XIAP, sequence (P98170 124-240 with tags or gaps C202A/C213G limits assumed): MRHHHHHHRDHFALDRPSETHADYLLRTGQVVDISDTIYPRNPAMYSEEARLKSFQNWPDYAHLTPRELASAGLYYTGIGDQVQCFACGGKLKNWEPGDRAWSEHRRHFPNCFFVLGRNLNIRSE
BIR3 domain of XIAP, sequence (P98170 241-356 with tags or gaps limits assumed): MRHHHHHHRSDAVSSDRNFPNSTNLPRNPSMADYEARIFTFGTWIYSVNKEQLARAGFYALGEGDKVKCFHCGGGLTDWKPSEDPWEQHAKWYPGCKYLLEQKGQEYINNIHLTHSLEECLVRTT

Structure (SMILES)	pIC50 [1]	pIC50 [2, 3]	pIC50 [2]
CN[C@@H](C)C(=O)N[C@H]1CN(C(=O)c2ccc(N)cc2)c2ccccc2N(Cc2c(C)ccc3ccccc23)C1=O [Example 67, (S)—N—((S)-5-(4-aminobenzoyl)-1-((2-methylnaphthalen-1-yl)methyl)-2-oxo-2,3,4,5-tetrahydro-1H-benzo[b][1,4]diazepin-3-yl)-2-(methylamino)propanamide hydrochloride]	7.66	< 4.26	–
COc1ccc2c(CN3C(=O)[C@@H](NC(=O)[C@H](C)N)CN(C(=O)c4ccc(C(C)=O)cc4)c4ccccc43)cc(=O)oc2c1 [Example 69j]	6.67	< 4.26	–
CN[C@@H](C)C(=O)N[C@H]1CN(C(=O)c2ccc(N)cc2)c2ccccc2N(Cc2noc3ccccc23)C1=O [Example 71, (S)—N—((S)-5-(4-Aminobenzoyl)-1-(benzo[d]isoxazol-3-ylmethyl)-2-oxo-2,3,4,5-tetrahydro-1H-benzo[b][1,4]diazepin-3-yl)-2-(methylamino)propanamide hydrochloride]	7.19	< 4.26	–
CN[C@@H](C)C(=O)N[C@H]1CN(Cc2ccc(C#N)cc2)c2ccccc2N(Cc2c(OC)ccc3cc(Br)ccc23)C1=O [Example 78, (S)—N—((S)-1-((6-Bromo-2-methoxynaphthalen-1-yl)methyl)-5-(4-cyanobenzyl)-2-oxo-2,3,4,5-tetrahydro-1H-benzo[b][1,4]diazepin-3-yl)-2-(methylamino)propanamide trifluoroacetate]	7.52	4.77	–
CCN[C@@H](C)C(=O)N[C@H]1CN(C(=O)c2ccc(C(C)=O)cc2)c2ccccc2N(Cc2c(OC)ccc3cc(Br)ccc23)C1=O [Example 80, (S)—N—((S)-5-(4-Acetylbenzoyl)-1-((6-bromo-2-methoxynaphthalen-1-yl)methyl)-2-oxo-2,3,4,5-tetrahydro-1H-benzo[b][1,4]diazepin-3-yl)-2-(ethylamino)propanamide hydrochloride]	7.85	–	< 4.26
CN[C@@H](C)C(=O)N[C@H]1CN(C(=O)CS(C)(=O)=O)c2ccccc2N(Cc2c(OC)ccc3ccccc23)C1=O [Example 82, (S)—N—((S)-1-((2-Methoxynaphthalen-1-yl)methyl)-5-(2-(methylsulfonyl)acetyl)-2-oxo-2,3,4,5-tetrahydro-1H-benzo[b][1,4]diazepin-3-yl)-2-(methylamino)propanamide hydrochloride]	7.54	< 4.26	–
CN[C@@H](C)C(=O)N[C@H]1CN(C(=O)CS(C)(=O)=O)c2ccccc2N(Cc2c(OC(F)F)ccc3ccccc23)C1=O [Example 83, (S)—N—((S)-1-((2-(Difluoromethoxy)naphthalen-1-yl)methyl)-5-(2-(methylsulfonyl)acetyl)-2-oxo-2,3,4,5-tetrahydro-1H-benzo[b][1,4]diazepin-3-yl)-2-(methylamino)propanamide hydrochloride]	6.92	< 4.26	–
CN[C@@H](C)C(=O)N[C@H]1CN(C(=O)Cc2cccnc2)c2ccccc2N(Cc2c(OC)ccc3c(Br)cccc23)C1=O [Example 88, (S)—N—((S)-1-((5-bromo-2-methoxynaphthalen-1-yl)methyl)-2-oxo-5-(2-(pyridin-3-yl)acetyl)-2,3,4,5-tetrahydro-1H-benzo[b][1,4]diazepin-3-yl)-2-(methylamino)propanamide hydrochloride]	7.85	4.40	–
CN[C@@H](C)C(=O)N[C@H]1CN(C(=O)c2ccc(C)cc2)c2ccccc2N(Cc2c(OC)ccc3c(Br)cccc23)C1=O [Example 93, (S)—N—[(S)-1-(5-Bromo-2-methoxy-naphthalen-1-ylmethyl)-5-(4-methyl-benzoyl)-2-oxo-2,3,4,5-tetrahydro-1H-benzo[b][1,4]diazepin-3-yl]-2-methylamino-propionamide hydrochloride]	7.74	4.32	–
CN[C@@H](C)C(=O)N[C@H]1CN(C(=O)c2ccc(C(C)(C)O)cc2)c2ccccc2N(Cc2c(OC)ccc3cc(Br)ccc23)C1=O [Example 95, (S)—N—{(S)-1-(6-Bromo-2-methoxy-naphthalen-1-ylmethyl)-5-[4-(1-hydroxy-1-methyl-ethyl)-benzoyl]-2-oxo-2,3,4,5-tetrahydro-1H-benzo[b][1,4]diazepin-3-yl}-2-methylamino-propionamide trifluoroacetate]	8.15	4.44	–
CN[C@@H](C)C(=O)N[C@H]1CN(C(=O)c2ccc(C(=O)OC)cc2)c2ccccc2N(Cc2c(C)ccc3ccccc23)C1=O [Example 96a, 4-[(S)-3-((S)-2-Methylamino-propionylamino)-5-(2-methyl-naphthalen-1-ylmethyl)-4-oxo-2,3,4,5-tetrahydro-benzo[b][1,4]diazepine-1-carbonyl]-benzoic acid methyl ester hydrochloride]	7.00	< 4.26	–
CN[C@@H](C)C(=O)N[C@H]1CN(C(=O)CC2CCOCC2)c2ccccc2N(Cc2c(C)ccc3ccccc23)C1=O [Example 96c]	6.97	4.55	–
CN[C@@H](C)C(=O)N[C@H]1CN(C(=O)CC2CCCCC2)c2ccccc2N(Cc2c(C)ccc3ccccc23)C1=O [Example 96e]	6.16	< 4.26	–
CN[C@@H](C)C(=O)N[C@H]1CN(C(=O)c2ccc(C(=O)O)cc2)c2ccccc2N(Cc2c(C)ccc3ccccc23)C1=O [Example 97, 4-[(S)-3-((S)-2-Methylamino-propionylamino)-5-(2-methyl-naphthalen-1-ylmethyl)-4-oxo-2,3,4,5-tetrahydro-benzo[b][1,4]diazepine-1-carbonyl]-benzoic acid hydrochloride]	7.00	< 4.26	–
CN[C@@H](C)C(=O)N[C@H]1CN(S(=O)(=O)NC)c2ccccc2N(Cc2c(C)ccc3ccccc23)C1=O [Example 98b]	6.73	< 4.26	–
CN[C@@H](C)C(=O)N[C@H]1CN(S(=O)(=O)c2ccc([N+](=O)[O-])cc2)c2ccccc2N(Cc2c(C)ccc3ccccc23)C1=O [Example 98d]	6.74	4.54	–
CN[C@@H](C)C(=O)N[C@H]1CN(S(=O)(=O)c2ccccc2)c2ccccc2N(Cc2c(C)ccc3ccccc23)C1=O [Example 98e]	6.88	4.50	–
CN[C@@H](C)C(=O)N[C@H]1CN(S(=O)(=O)c2ccc(OC)cc2)c2ccccc2N(Cc2c(C)ccc3ccccc23)C1=O [Example 98f]	6.75	< 4.30	–

Further lines, with some results ahead:

pIC50 [1]	pIC50 [2, 3]	Structure (SMILES)	pIC50 [2]
7.31	4.30	CN[C@@H](C)C(=O)N[C@H]1CN(C(=O)c2ccc(C(C)=O)cc2)c2ccccc2N(Cc2noc3cc(Br)ccc23)C1=O [Example 69e]	–
7.96	4.37	CN[C@@H](C)C(=O)N[C@H]1CN(C(=O)c2ccc(C(C)=O)cc2)c2ccccc2N(Cc2c(OC)ccc3ccccc23)C1=O [Example 69g]	–
7.70	4.52	CC(=O)c1ccc(C(=O)N2C[C@H](NC(=O)[C@H](C)N)C(=O)N(Cc3c(OCC(F)(F)F)ccc4ccccc34)c3ccccc32)cc1 [Example 69h]	–
7.41	4.28	CC(=O)c1ccc(C(=O)N2C[C@H](NC(=O)[C@H](C)N)C(=O)N(Cc3c(OC(F)F)ccc4ccccc34)c3ccccc32)cc1 [Example 69i]	–
7.57	< 4.26	CC(=O)c1ccc(C(=O)N2C[C@H](NC(=O)[C@H](C)N)C(=O)N(Cc3noc4ccccc34)c3ccccc32)cc1 [Example 69k]	–
7.31	< 4.26	CN[C@@H](C)C(=O)N[C@H]1CN(C(=O)c2ccc(C#N)cc2)c2ccccc2N(Cc2c(OC(F)F)ccc3ccccc23)C1=O [Example 74, (S)—N—((S)-5-(4-Cyanobenzoyl)-1-((2-(difluoromethoxy)naphthalen-1-yl)methyl)-2-oxo-2,3,4,5-tetrahydro-1H-benzo[b][1,4]diazepin-3-yl)-2-(methylamino)propanamide]	–
8.30	4.48	CN[C@@H](C)C(=O)N[C@H]1CN(C(=O)c2ccc(NC(C)=O)cc2)c2ccccc2N(Cc2c(OC)ccc3cc(Br)ccc23)C1=O [Example 76d]	–
9.00	5.46	CC[C@H](NC)C(=O)N[C@H]1CN(C(=O)c2ccc(C(C)=O)cc2)c2ccccc2N(Cc2c(OC)ccc3cc(Br)ccc23)C1=O [Example 79, (S)—N—((S)-5-(4-Acetylbenzoyl)-1-((6-bromo-2-methoxynaphthalen-1-yl)methyl)-2-oxo-2,3,4,5-tetrahydro-1H-benzo[b][1,4]diazepin-3-yl)-2-(methylamino)butanamide hydrochloride]	–
8.22	4.66	CN[C@@H](C)C(=O)N[C@H]1CN(C(=O)c2cccc(C#N)c2)c2ccccc2N(Cc2c(OC)ccc3cc(Br)ccc23)C1=O [Example 90c]	–
7.74	< 4.26	CN[C@@H](C)C(=O)N[C@H]1CN(C(=O)c2ccc(C(F)(F)F)cc2)c2ccccc2N(Cc2c(OC)ccc3cc(Br)ccc23)C1=O [Example 91d]	–
7.15	4.41	CN[C@@H](C)C(=O)N[C@H]1CN(C(=O)Cc2nnn[nH]2)c2ccccc2N(Cc2c(C)ccc3ccccc23)C1=O [Example 96b]	–
7.34	< 4.26	CN[C@@H](C)C(=O)N[C@H]1CN(C(=O)c2ccc(C#N)cc2)c2ccccc2N(Cc2c(C)ccc3ccccc23)C1=O [Example 96d]	–
7.64	4.87	CN[C@@H](C)C(=O)N[C@H]1CN(C(=O)Cc2cccnc2)c2ccccc2N(Cc2c(C)ccc3ccccc23)C1=O [Example 96h]	–
7.52	4.32	CN[C@@H](C)C(=O)N[C@H]1CN(C(=O)c2ccc(F)cc2)c2ccccc2N(Cc2c(C)ccc3ccccc23)C1=O [Example 96i]	–
7.42	4.49	CN[C@@H](C)C(=O)N[C@H]1CN(C(=O)c2ccc(C)cc2)c2ccccc2N(Cc2c(C)ccc3ccccc23)C1=O [Example 96k]	–
7.43	< 4.26	CN[C@@H](C)C(=O)N[C@H]1CN(C(=O)c2ccc(OC)cc2)c2ccccc2N(Cc2c(C)ccc3ccccc23)C1=O [Example 96l]	–
